Test results reported in publication doi:10.1101/2021.04.29.441652v1 (biorxiv, 2021).

Molecular target: human σ2 receptor (TMEM97) (Homo sapiens, UniProt Q5BJF2)
Assay: biochemical
Type: Expi293 membranes
Settings: read-out: % of control remaining

Chain of human σ2 receptor (TMEM97) (Q5BJF2 whole entry): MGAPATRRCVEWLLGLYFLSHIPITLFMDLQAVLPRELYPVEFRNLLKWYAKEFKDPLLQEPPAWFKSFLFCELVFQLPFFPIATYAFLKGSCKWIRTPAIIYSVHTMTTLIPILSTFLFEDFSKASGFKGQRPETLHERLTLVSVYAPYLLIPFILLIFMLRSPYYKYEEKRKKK

remaining activity at 1 µM [%] | SMILES
86.9 | C[C@H](C(=O)NCc1cc(Br)cs1)N1CCCCCC1 [ZINC000074484650]
60.5 | c1cncc(-c2nc(N3CCC[C@H](N4CCCC4)C3)c3ccccc3n2)c1 [ZINC000076836015]
24.7 | Cc1noc(-c2cccnc2NC2CCC(N3CCCCC3)CC2)n1 (stereo not shown) [ZINC000080247921]
17.7 | O=C(Nc1cccc(OC(F)(F)F)c1)C(=O)N1CCC[C@@H](N2CCCC2)CC1 [ZINC000120571916]
68.6 | CN1CCN(c2ncc(CN3CCN(CC4CC4)CC3)cn2)CC1 [ZINC000130668661]
65.7 | CN(C(=O)C[C@@H]1CSCCN1)[C@@H]1CCCN(c2cccnn2)C1 [ZINC000133744458]
21.7 | O=C(CCc1cc(Br)ccc1F)N1CC[C@@H](CN2CCCC2)C1 [ZINC000135482356]
53.9 | O=C(NCc1ccc(F)cc1C(F)(F)F)[C@@H]1CC12CCNCC2 [ZINC000136880129]
44.7 | COC(=O)[C@@H](C)CS(=O)(=O)N[C@@H]1CCN(CC2CCCC2)C1 [ZINC000152090354]
108 | CC(C)[C@H](C(=O)NC[C@H](C[C@@H](C)O)c1ccccc1)N1CCCCC1 [ZINC000159130997]
29.7 | FC(F)(F)c1ccc(-c2nc(CN3CC[C@H](N4CCCC4)C3)cs2)cc1 [ZINC000170742095]
96.3 | O=C(Nc1ccc2ncsc2c1)C(=O)N1CCCN(C2CCCC2)CC1 [ZINC000172648663]
111 | O=C1Nc2ccccc2C12CCC(NCC1(O)CCOCC1)CC2 (stereo not shown) [ZINC000178638284]
98 | C[C@H](CCNC(=O)N1CCO[C@H]([C@@H]2CCCO2)C1)N1CCCCC1 [ZINC000182663590]
36.1 | Cc1ccc([N+](=O)[O-])cc1[C@H](C)N1C[C@H]2CCC[C@@H]2C1 [ZINC000182842742]
95.3 | N#Cc1ccccc1NC(=O)CCN1CCC(O)(c2c(F)cccc2F)CC1 [ZINC000186482223]
106 | O=C(NCCc1ccc(F)c(Br)c1)[C@H]1C[C@H](F)CN1 [ZINC000188412270]
52.9 | O=C1Nc2ccccc2CC[C@H]1N1CC[C@@H](COCc2ccccc2)C1 [ZINC000192043753]
109 | CC(C)(C)N1CCC(NC(=O)c2ncccc2Br)CC1 [ZINC000194878845]
89 | N[C@@H](CC(=O)Nc1cccc(C(=O)N2CCCC2)c1)c1ccccc1 [ZINC000237909071]
114 | C[C@@H]1CCCN1CC(=O)NCC(=O)N[C@H](C)c1ccc(F)cc1 [ZINC000245453841]
72.6 | CCN(C[C@@H]1CCN(Cc2ccccc2)C1)C(=O)[C@H]1CC(=O)N(C2CCCC2)C1 [ZINC000246894550]
61.2 | COC(=O)C[C@H]1CCCN1C[C@@H](O)Cc1ccc(C(F)(F)F)cc1 [ZINC000247001079]
73 | O=C1[C@H](N2C[C@@H]3CCC[C@H]3C2)CCN1c1ccccc1Cl [ZINC000247015101]
104 | CN1CCC[C@@H]2CN(Cn3ccc(-c4ccc(Br)cc4)n3)CC[C@H]21 [ZINC000247147334]
87.4 | CN(C[C@@H](O)CCc1ccccc1)[C@H]1CCN(c2ccccc2F)C1=O [ZINC000248559983]
83.4 | Cc1ccc(NC(=O)CN2CCC[C@@H](C3OCCO3)C2)cc1Cl [ZINC000263644082]
97.5 | Cc1cccnc1[C@H](NC(=O)N1CCN(C2CCC2)CC1)C(C)C [ZINC000265281429]
11.1 | N/C(=N\Cc1cccc2c1OCCCO2)NC1CCCC1 [ZINC000269280100]

The next lines start with the compound.

SMILES | remaining activity at 1 µM [%]
CC(C)CN1CCC(NC(=O)NNC(=O)C(=O)NC2CC2)CC1 [ZINC000045463977] | 107
CCCn1c(C)cc(/C=C(/C#N)C(=O)NCCN(C)Cc2ccccc2)c1C [ZINC000064804934] | 85
CC[C@@H](C)NC(=O)[C@@H](C)N1CCC(c2c[nH]c3ccccc23)CC1 [ZINC000073649189] | 74.2
c1ccc(-c2csc(CN3CCC4(C3)OCCO4)c2)cc1 [ZINC000093013680] | 89.6
CC1CCC(N2CCN(CCOC(C)C)CC2)CC1 (stereo not shown) [ZINC000115566238] | 18.2
N#Cc1csc(CN2CCC[C@H]2Cc2ccccc2)c1 [ZINC000124982852] | 89.7
COc1ccccc1O[C@H](C)CN[C@@H](C)c1ccccc1OC [ZINC000129576345] | 14.2
C[C@H](Cn1cc(Br)cn1)NCc1cn2cc(Cl)ccc2n1 [ZINC000131571127] | 76.6
C[C@@H](Cn1cc(Br)cn1)NCCOc1ccc2c(c1)OCO2 [ZINC000133991118] | 65.4
O=C(CN1CC[C@]2(CCOC2)C1)N[C@@H](Cc1ccccc1)c1ccccc1 [ZINC000153400973] | 99.4
Cc1cc(C(C)(C)C)ccc1OC[C@@H](O)CN1CC[C@]2(CCOC2)C1 [ZINC000153451054] | 17.2
C[C@H](N[C@@H](C)CN1CCN(C)CC1)c1ccc(-c2ccccc2)o1 [ZINC000155112667] | 33.8
CS[C@@H]1CCC[C@H](NC(=O)NC2CCN([C@@H]3CCCC[C@@H]3O)CC2)C1 [ZINC000155998528] | 30.9
C[C@H]1C[C@@H](NC(=O)C(=O)Nc2cnn(CC(F)F)c2)CN1C1CC1 [ZINC000158577469] | 111
COC(=O)[C@@H](NCC[C@H](C)N(C)Cc1ccccc1)c1cccc(C#N)c1 [ZINC000176805277] | 41.6
C[C@H](c1ccccn1)N1CC=C(c2ccc(O)cc2)CC1 [ZINC000176995469] | 61.4
CCN(CC)[C@H]1CCN(Cc2ncc(Cl)cc2Cl)C1 [ZINC000182372239] | 34.6
C[C@H](Cn1ncc2ccccc2c1=O)N[C@H]1CC[C@H](Cc2ccccc2)C1 [ZINC000188287346] | 0.9
COc1ccc2ccccc2c1-c1cc(CN2CCN(C[C@@H](C)O)C[C@H]2C)on1 [ZINC000192810020] | 89
Cc1ccccc1NC(=O)CN1CCC[C@@H]1C[C@H](C)O [ZINC000228149300] | 113
CC[C@H](C)CNC[C@H]1CCC[C@H]1NS(C)(=O)=O [ZINC000245533477] | 98.5
C[C@H]1CCN(CC#Cc2cccc(Cl)c2)[C@H]1CO [ZINC000248917461] | 103
O[C@]1(CN[C@@H]2CC[C@@H](Cc3ccccc3)C2)CCSC1 [ZINC000249076038] | 30.5
C[C@H]1CN/C(=N/Cc2cccc(OCc3ccccc3)c2)N1 [ZINC000261552362] | 56.1
C=CCOCC(=O)N(CCN)CCc1ccccc1 [ZINC000261774189] | 108
COc1ccc(Br)cc1C/N=C1/NC[C@@H](C)N1 [ZINC000262658947] | 45.4
C=C(C)CN/C(N)=N/[C@H]1C[C@H](c2cccc(F)c2)C1 [ZINC000262856881] | 6.4
COC1CCC(N(C)CC(=O)Nc2ccc3ccccc3c2)CC1 (stereo not shown) [ZINC000265181994] | 102
COCC1(O)CCN(C[C@@H](O)Cn2cnc3cc(C)c(C)cc32)CC1 [ZINC000270395954] | 121
